# Columns and labels:
# [1] = Solubility of 25HC3S in 10 mM sodium phosphate buffer pH 7.6 with HPbCD at 5, 15 and 25°C; type: physicochemical; conditions: 25°C/60% RH, supernatant
# [2] = test system: hepatic apoptosis-related genes; assay: Hepatic gene expression by RT2 Profiler PCR Array in APAP overdosed mice; type: in vivo, C57BL/6J mice; conditions: liver, APAP 350 mg/kg mice, 24 h
# Method: A composition comprising 25 mg/kg of 25HC3S sodium salt in vehicle was administered intravenously to the experimental mice 0.5 hours after APAP administration. Mortality was monitored in the high dose mice. In the low dose mice, the liver function markers aspartate aminotransferase (AST), alanine aminotransferase (ALT), alkaline phosphatase (ALK) and lactate dehydrogenase (LDH), were measured in serum. Impacts on gene expression were determined by Quantitative Real-time PCR. Membrane potentials were measured using JC1 staining and flow cytometry.
# Changes in gene regulation in low dose mice 24 hours after the administration of vehicle and vehicle plus 25HC3S were investigated. The 12-week-old male C57BL/6J mice had received 350 mg/kg APAP via intraperitoneal injection and 30 min later received 7.6% glucose/H2O (C) or vehicle (20% PG/4% HCD/7.6% glucose, P) or 25HC3S (3S). Twenty four hours following APAP injection, liver tissue was harvested and total mRNA was extracted and analyzed using an RT^2 Profiler™ PCR Array assay. The listed genes are involved in apoptosis and/or immune system regulation.
# [3] = test system: CLP surgery-induced sepsis model; assay: Survival in rodent model of surgically-induced sepsis (cecum ligation puncture); type: in vivo, CD rats; conditions: 30 mg/kg sc within 30 minutes after surgery, end of study (3 days or 72 hours), N=5
# Method: The subjects for the study were 10 male CD rats (12-13 weeks of age, 400-450 g).
# A solution formulation of 25HC3S sodium salt and its respective vehicle was used for the study. The Vehicle was a solution of 40 mg/mL hydroxypropyl betadex with 10 mM sodium phosphate buffer in 70% (v/v) of 0.9% (w/v) sodium chloride and 30% (v/v) of sterile water. 25HC3S sodium salt was pre-dissolved into the Vehicle solution to result in a drug concentration of 5 mg/mL. The 25HC3S solution was ready-to-use at the start of dosing. Both the vehicle and 25HC3S solution were stored at room temperature. Before dosing, the 25HC3S solution was confirmed to be clear and void of any precipitation. Otherwise, if precipitation was observed, the solution was to be sonicated at room temperature for 10 minutes to dissolve particulates.
# The CLP procedure is an established and widely-used approach to investigate the progression and characteristics of clinical sepsis. On the day of surgery, animals were weighed and monitored for their baseline temperature. Animals were anesthetized with isoflurane and depth of anesthesia was checked by toe-pinching. Dipyrone (an analgesic) was given subcutaneously prior to surgery. […]
# Rats were monitored for survival for 3 days after CLP surgery and 25HC3S treatment. […]
# Animals were monitored for mortality, “clinical signs” and pain level. […]
# [4] = human, in vivo
# Method: This example describes a randomized, double-blind, placebo-controlled, safety and pharmacokinetic study of a parenteral formulation of 25HC3S. The study involved the administration of 25HC3S sodium salt to healthy subjects via intramuscular injections (IM) as i) single ascending doses (SAD) in the range of 30-300 mg and as ii) a multiple ascending dose (MAD) study using multiple IM doses of 150 mg administered daily for 5 days (see Table 13). All subjects were male, with an age range of 19-36 years.
# In Part A of the study (SAD), a parenteral dose of 25HC3S or matching placebo was administered intramuscularly (IM) to cohorts of 6 healthy subjects (4 randomized to 25HC3S and two randomized to matching placebo on a double-blind basis). The initial dose was 30 mg and subsequent cohorts of 6 different subjects received doses of 90, 150, and 300 mg of 25HC3S. A total of 16 subjects received 25HC3S and 8 received placebo in Part A. In Part B (MAD), a parenteral dose of 150 mg 25HC3S or matching placebo was administered IM once daily for 5 days, altering injection sites, to a single cohort of 10 healthy subjects (8 randomized to 25HC3S and two randomized to matching placebo on a double-blind basis; see Table 14).
# Safety assessments included periodic monitoring of routine vital signs, safety laboratory tests and 12 lead ECG collection. Subjects completed a screening phase, treatment and an end-of-study visit. Dose escalation to the next dose level in Part I and Part II of the study was undertaken following review of the preceding dose results.
# Pain intensity (measured on a 0-10 numeric rating scale) was assessed after each injection, and the injection sites were examined for tenderness, redness, bruising, swelling and induration at specified time points after injection.
compound,measurement,setting,value
"C[C@H](CCCC(C)(C)O)[C@H]1CC[C@H]2[C@@H]3CC=C4C[C@@H](OS(=O)(=O)[O-])CC[C@]4(C)[C@H]3CC[C@]12C.[Na+] [25HC3S, 5-cholesten-3, 25-diol, 3-sulfate]",pH of Filtrate Day 3,[1]; HPbCD 0 mg/mL,7.532
same,pH of Filtrate Day 3,[1]; HPbCD 250 mg/mL,7.842
same,"Cd40 (NM_011611) gene expression, Fold vs P",[2]; vs P (vehicle) group,−2.7 Fold
same,"Fasl (NM_010177) gene expression, Fold vs P",[2]; vs P (vehicle) group,−2.6 Fold
same,"Gadd45a (NM_007836) gene expression, Fold vs P",[2]; vs P (vehicle) group,−10.9 Fold
same,"Nol3 (NM_030152) gene expression, Fold vs P",[2]; vs P (vehicle) group,3.6 Fold
same,"Pvr (NM_027514) gene expression, Fold vs P",[2]; vs P (vehicle) group,−3.3 Fold
same,"Tnf (NM_013693) gene expression, Fold vs P",[2]; vs P (vehicle) group,−2.4 Fold
same,"Apaf1 (NM_009741) gene expression, Fold vs C",[2]; vs control (C) group,−2.2 Fold
same,"Cd40 (NM_011611) gene expression, Fold vs C",[2]; vs control (C) group,−2.1 Fold
same,"Fasl (NM_010177) gene expression, Fold vs C",[2]; vs control (C) group,−2.1 Fold
same,"Gadd45a (NM_007836) gene expression, Fold vs C",[2]; vs control (C) group,−9.3 Fold
same,"Nol3 (NM_030152) gene expression, Fold vs C",[2]; vs control (C) group,5.3 Fold
same,"Pvr (NM_027514) gene expression, Fold vs C",[2]; vs control (C) group,−3.9 Fold
same,"Tnfrsf11b (NM_008764) gene expression, Fold vs C",[2]; vs control (C) group,−2.9 Fold
same,rats that had died,[3],60%
same,first time point with detectable drug levels,[4],0.5 h
same,mean pain intensity (0-10 numeric rating scale),[4],0.8-3.5
same,time by which pain had resolved after injection,[4],≤ 1 h
same,time of maximal pain intensity after injection,[4],5 to 10 min
